Measured values published in US8642736B2, “Casein complexes” (DSM IP Assets B. V., priority 2006, dated 2014).

Columns and labels:
[1] = Storage stability: resveratrol in supernatant of aqueous dispersions (UV method); format: physicochemical
Experimental: Resveratrol-caseinate complex used was the oven-dried material described in Example 8 (non-dispersible material was not removed by centrifugation). Crystalline resveratrol was included for comparison.
Complexed and crystalline resveratrol was dispersed in deionized water of pH 6.8 or 3.0 to give a final target dispersion concentration of 60 and 80 ppm. The desired pH was achieved by pH adjustment using dilute HCl or NaHCO3 The samples were heated in a water bath till 80° C. and then held at 80° C. for 1 minute. The samples were stored in the dark at 25° C. and 5° C. During storage, resveratrol recrystallized and precipitated in some samples. The resveratrol concentration in the supernatant were determined by a UV method and the results are shown below, […]

[2] = Dispersion stability of 10% dispersion: resveratrol content, upper part vs after mixing; format: physicochemical; details: aqueous dispersion; likely much less using similar dispersion conditions
Experimental: The powder (2.5 g) was dispersed in deionized water (47.5 g) with stirring. The dispersion was centrifuged at 3000 rpm for 5 minutes (Sigma Centrifuge 6-10, Sigma Laborzentrifugen GmbH, Germany) to remove the un-dispersible material. The supernatant was lyophilized to yield 1.7 g powder. The powder (1 g) was suspended in deionized water (9 g) to give a 10% homogenous dispersion. A sample of the dispersion was placed in a test tube and stored at room temperature for 3 hours and then at 5° C. for 1 day. A small sample was taken from the upper part of the test tube and then a sample was taken after mixing. […] The results indicated the dispersion stability. The highly concentrate dispersion can be conveniently used for various applications in pharmaceuticals and cosmetics, food and feed, especially in beverages.
A dispersion of more than 0.005% (likely much less using similar dispersion conditions) of non-complexed resveratrol would result in precipitation of resveratrol.

[3] = target 60 ppm, pH 3.0, stored in the dark at 5 C.
[4] = target 60 ppm, pH 3.0, stored in the dark at 25 C.
[5] = target 60 ppm, pH 6.8, stored in the dark at 5 C.
[6] = target 60 ppm, pH 6.8, stored in the dark at 25 C.
[7] = target 80 ppm, pH 3.0, stored in the dark at 5 C.
[8] = target 80 ppm, pH 3.0, stored in the dark at 25 C.
[9] = target 80 ppm, pH 6.8, stored in the dark at 5 C.
[10] = target 80 ppm, pH 6.8, stored in the dark at 25 C.

Structure (SMILES): Oc1ccc(C=Cc2cc(O)cc(O)c2)cc1 [Resveratrol, 3,4′,5-trihydroxystilbene]
- Resveratrol in supernatant, Initial ([1]; target 60 ppm, pH 3.0, 5 C.): 58 ppm
- Resveratrol in supernatant, Initial ([1]; target 60 ppm, pH 3.0, 25 C.): 58 ppm
- Resveratrol in supernatant, 1 week [1, 3]: 28 ppm
- Resveratrol in supernatant, 1 week (% in parentheses) [1, 3]: 48%
- Resveratrol in supernatant, 2.4 week [1, 3]: 19 ppm
- Resveratrol in supernatant, 2.4 week (% in parentheses) [1, 3]: 33%
- Resveratrol in supernatant, 1 week [1, 4]: 43 ppm
- Resveratrol in supernatant, 1 week (% in parentheses) [1, 4]: 74%
- Resveratrol in supernatant, 2.4 week [1, 4]: 39 ppm
- Resveratrol in supernatant, 2.4 week (% in parentheses) [1, 4]: 67%
- Resveratrol in supernatant, Initial ([1]; target 60 ppm, pH 6.8, 5 C.): 60 ppm
- Resveratrol in supernatant, Initial ([1]; target 60 ppm, pH 6.8, 25 C.): 60 ppm
- Resveratrol in supernatant, 1 week [1, 5]: 23 ppm
- Resveratrol in supernatant, 1 week (% in parentheses) [1, 5]: 38%
- Resveratrol in supernatant, 2.4 week [1, 5]: 17 ppm
- Resveratrol in supernatant, 2.4 week (% in parentheses) [1, 5]: 28%
- Resveratrol in supernatant, 1 week [1, 6]: 45 ppm
- Resveratrol in supernatant, 1 week (% in parentheses) [1, 6]: 75%
- Resveratrol in supernatant, 2.4 week [1, 6]: 39 ppm
- Resveratrol in supernatant, 2.4 week (% in parentheses) [1, 6]: 65%
- Resveratrol in supernatant, Initial ([1]; target 80 ppm, pH 3.0, 5 C.): 80 ppm
- Resveratrol in supernatant, Initial ([1]; target 80 ppm, pH 3.0, 25 C.): 80 ppm
- Resveratrol in supernatant, 1 week [1, 7]: 28 ppm
- Resveratrol in supernatant, 1 week (% in parentheses) [1, 7]: 35%
- Resveratrol in supernatant, 2.4 week [1, 7]: 16 ppm
- Resveratrol in supernatant, 2.4 week (% in parentheses) [1, 7]: 20%
- Resveratrol in supernatant, 1 week [1, 8]: 47 ppm
- Resveratrol in supernatant, 1 week (% in parentheses) [1, 8]: 59%
- Resveratrol in supernatant, 2.4 week [1, 8]: 38 ppm
- Resveratrol in supernatant, 2.4 week (% in parentheses) [1, 8]: 48%
- Resveratrol in supernatant, Initial ([1]; target 80 ppm, pH 6.8, 5 C.): 79 ppm
- Resveratrol in supernatant, Initial ([1]; target 80 ppm, pH 6.8, 25 C.): 79 ppm
- Resveratrol in supernatant, 1 week [1, 9]: 24 ppm
- Resveratrol in supernatant, 1 week (% in parentheses) [1, 9]: 30%
- Resveratrol in supernatant, 2.4 week [1, 9]: 16 ppm
- Resveratrol in supernatant, 2.4 week (% in parentheses) [1, 9]: 20%
- Resveratrol in supernatant, 1 week [1, 10]: 45 ppm
- Resveratrol in supernatant, 1 week (% in parentheses) [1, 10]: 57%
- Resveratrol in supernatant, 2.4 week [1, 10]: 43 ppm
- Resveratrol in supernatant, 2.4 week (% in parentheses) [1, 10]: 54%
- dispersion concentration that would result in precipitation of resveratrol [2]: more than 0.005%
